In paper PMC9519552, “Activation of the human insulin receptor by non-insulin-related peptides” (Nature Communications, 2022):
pIC50, pKi: −log10 of the molar value. Where two headings read alike, the source gives them in different places. Positions of bridges follow the written chain, without caps; N, C: chain ends. Residues, ends and D or L forms follow the SMILES beside them.

Legend:
human IR-A (holoIR-A) = target: T1, human IR-A (holoIR-A) (Homo sapiens, UniProt P06213); assay: holoIR-A competitive radioligand binding assay (scintillation proximity assay); conditions: for pKi / Ki: IM172N22(-) mutant peptide set; for reduction in ki for hIR-A on substitution: relative to control peptide IM172N22 devoid of N-terminal phenylacetylation
T1 construct: expressed in transfected cells; host or cells: HEK293 (ATCC #CRL-1573), stably transfected; membrane preparation
T1 sequence (P06213 28-1370 isoform P06213-2 limits assumed): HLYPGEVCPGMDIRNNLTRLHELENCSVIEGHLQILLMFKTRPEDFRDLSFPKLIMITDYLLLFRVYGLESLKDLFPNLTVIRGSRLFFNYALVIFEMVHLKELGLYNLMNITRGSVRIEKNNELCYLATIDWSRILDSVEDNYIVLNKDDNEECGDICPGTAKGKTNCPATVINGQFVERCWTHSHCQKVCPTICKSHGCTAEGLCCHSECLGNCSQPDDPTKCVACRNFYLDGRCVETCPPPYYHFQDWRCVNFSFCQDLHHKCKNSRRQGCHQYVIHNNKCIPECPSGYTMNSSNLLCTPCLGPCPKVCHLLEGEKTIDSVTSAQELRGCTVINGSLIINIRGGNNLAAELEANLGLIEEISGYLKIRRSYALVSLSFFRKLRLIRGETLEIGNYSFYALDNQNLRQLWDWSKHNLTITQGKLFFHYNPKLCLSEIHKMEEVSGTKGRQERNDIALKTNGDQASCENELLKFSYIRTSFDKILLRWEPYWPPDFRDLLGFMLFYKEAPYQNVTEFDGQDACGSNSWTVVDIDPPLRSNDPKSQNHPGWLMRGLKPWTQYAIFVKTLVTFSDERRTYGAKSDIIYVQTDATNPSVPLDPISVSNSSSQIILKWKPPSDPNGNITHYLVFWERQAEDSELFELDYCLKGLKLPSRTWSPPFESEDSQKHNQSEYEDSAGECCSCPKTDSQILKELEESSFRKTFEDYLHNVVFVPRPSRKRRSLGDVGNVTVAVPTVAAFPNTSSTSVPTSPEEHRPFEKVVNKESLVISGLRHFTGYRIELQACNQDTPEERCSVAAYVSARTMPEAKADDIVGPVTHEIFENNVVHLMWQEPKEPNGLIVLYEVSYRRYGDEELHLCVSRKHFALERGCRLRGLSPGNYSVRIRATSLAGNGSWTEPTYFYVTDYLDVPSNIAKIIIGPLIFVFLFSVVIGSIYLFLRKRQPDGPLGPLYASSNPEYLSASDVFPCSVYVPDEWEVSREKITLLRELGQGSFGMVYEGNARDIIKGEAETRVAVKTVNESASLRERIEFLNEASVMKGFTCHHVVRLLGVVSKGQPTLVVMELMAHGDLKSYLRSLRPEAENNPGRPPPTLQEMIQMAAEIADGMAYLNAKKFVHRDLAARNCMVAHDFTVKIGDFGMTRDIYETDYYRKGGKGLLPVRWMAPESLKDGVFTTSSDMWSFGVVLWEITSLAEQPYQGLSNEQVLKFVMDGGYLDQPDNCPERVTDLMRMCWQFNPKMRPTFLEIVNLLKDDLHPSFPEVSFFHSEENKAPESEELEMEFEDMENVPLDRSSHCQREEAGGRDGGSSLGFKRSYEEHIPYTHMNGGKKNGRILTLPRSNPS
T1 sequence (P06213 763-1382 partner limits assumed): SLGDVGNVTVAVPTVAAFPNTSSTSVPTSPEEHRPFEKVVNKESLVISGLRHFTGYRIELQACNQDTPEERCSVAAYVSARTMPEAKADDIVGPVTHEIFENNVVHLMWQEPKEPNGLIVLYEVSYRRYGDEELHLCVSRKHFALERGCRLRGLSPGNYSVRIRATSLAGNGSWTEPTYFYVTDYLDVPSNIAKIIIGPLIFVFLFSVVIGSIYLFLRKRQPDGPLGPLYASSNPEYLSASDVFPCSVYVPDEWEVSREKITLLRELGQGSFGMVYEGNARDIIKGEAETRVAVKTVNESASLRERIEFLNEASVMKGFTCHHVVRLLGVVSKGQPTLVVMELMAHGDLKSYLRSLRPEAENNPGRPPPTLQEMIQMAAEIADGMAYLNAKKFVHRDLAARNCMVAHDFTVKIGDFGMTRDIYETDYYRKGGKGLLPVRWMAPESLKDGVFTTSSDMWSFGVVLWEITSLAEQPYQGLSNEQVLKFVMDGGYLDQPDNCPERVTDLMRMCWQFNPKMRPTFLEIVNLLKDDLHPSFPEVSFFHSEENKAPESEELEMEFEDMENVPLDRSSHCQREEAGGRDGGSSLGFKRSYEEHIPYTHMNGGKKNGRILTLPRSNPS
How it was run: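 Membranes from HEK293 cells stably expressing C9-tagged human IR-A were used in a WGA-bead SPA competition assay in 50 mM Tris-HCl pH 7.5, 150 mM NaCl, 0.1% fatty-acid-free BSA. Ten-point 3-fold dilutions were incubated 10 h at room temperature before scintillation counting. Percent specific inhibition was calculated after nonspecific-binding correction, from three independent runs.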

[1] = target: T2, human holoIR-A over-expressed in HEK293 cells (Homo sapiens, UniProt P06213); assay: Inhibition of hIR phosphorylation by peptides, co-incubated with BHI at its EC50 (ELISA); format: cell-based; conditions: for hIRA Phosph IC50 Run 1 / hIRA Phosph IC50 Run 2 / hIRA Phosph IC50 Run 3: inhibition of insulin-stimulated phosphorylation; for hIRA Phosph IC50 Run 1: BHI at its EC50, run 1; for hIRA Phosph IC50 Run 2: BHI at its EC50, run 2; for hIRA Phosph IC50 Run 3: BHI at its EC50, run 3; for pIC50: read-out: hIRA Phosph IC50 Mean
T2 construct: expressed in transfected cells; host or cells: HEK293, stably transfected
T2 sequence (P06213 28-1370 isoform P06213-2 limits assumed): as the sequence (P06213 28-1370 isoform P06213-2 limits assumed) above
T2 sequence (P06213 763-1382 partner limits assumed): as the sequence (P06213 763-1382 partner limits assumed) above
How it was run: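 Serum-starved HEK293 cells stably over-expressing C9-tagged human holoIR-A were treated, lysed, and receptor captured on anti-C9-coated plates. Phosphorylation was detected by HRP/TMB ELISA at A450. Percent specific response was plotted against log compound concentration, with three independent runs on different days.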

[2] = mean of 3 runs, read-out: hIRA Binding Ki Mean
[3] = run 1, read-out: hIRA Binding Ki Run 1
[4] = run 2, read-out: hIRA Binding Ki Run 2
[5] = run 3, read-out: hIRA Binding Ki Run 3

| SMILES | pKi (human IR-A (holoIR-A); [2]) | Ki (human IR-A (holoIR-A); [3]) | Ki (human IR-A (holoIR-A); [4]) | Ki (human IR-A (holoIR-A); [5]) | reduction in ki for hIR-A on substitution (human IR-A (holoIR-A)) | hIRA Phosph IC50 Run 1 [1] | hIRA Phosph IC50 Run 2 [1] | hIRA Phosph IC50 Run 3 [1] | pIC50 [1] | pKi (human IR-A (holoIR-A); [3]) | pKi (human IR-A (holoIR-A); [4]) | pKi (human IR-A (holoIR-A); [5]) |
| --- | --- | --- | --- | --- | --- | --- | --- | --- | --- | --- | --- | --- |
| CC[C@H](C)[C@H](NC(=O)[C@H](CCC(N)=O)NC(=O)[C@H](C)NC(=O)[C@H](Cc1c[nH]c2ccccc12)NC(=O)[C@H](CCC(=O)O)NC(=O)[C@H](CCC(=O)O)NC(=O)[C@H](CCC(=O)O)NC(=O)[C@H](CC(C)C)NC(=O)[C@H](C)NC(C)=O)C(=O)N[C@@H](CCC(=O)O)C(=O)N[C@H]1CSSC[C@@H](C(=O)N2CCC[C@H]2C(=O)N2CCC[C@H]2C(=O)N[C@@H](CO)C(=O)N[C@@H](CCC(=O)O)C(=O)N[C@@H](CO)C(N)=O)NC(=O)[C@H](CCCNC(=N)N)NC(=O)CNC(=O)[C@H](Cc2ccc(O)cc2)NC(=O)[C@H](C(C)C)NC(=O)[C@H](CCC(=O)O)NC1=O [Peptide S1A] (Ac-ALEEEWAQIECEVYGRCPPSES-NH2; disulfide 11-17) | 8.04 | 8.71 nM | 8.06 nM | 10.5 nM | lower than 5 fold | 119 nM | 127 nM | 121 nM | 6.91 |  |  |  |
| CC[C@H](C)[C@H](NC(=O)[C@H](CCC(N)=O)NC(=O)[C@H](C)NC(=O)[C@H](Cc1c[nH]c2ccccc12)NC(=O)[C@H](CCC(=O)O)NC(=O)[C@H](CCC(=O)O)NC(=O)[C@H](CCC(=O)O)NC(=O)[C@H](CC(C)C)NC(=O)[C@H](CO)NC(C)=O)C(=O)N[C@@H](CCC(=O)O)C(=O)N[C@H]1CSSC[C@@H](C(=O)N2CCC[C@H]2C(=O)N2CCC[C@H]2C(=O)N[C@@H](CO)C(=O)N[C@@H](CCC(=O)O)C(=O)N[C@@H](CO)C(N)=O)NC(=O)[C@H](CCCNC(=N)N)NC(=O)[C@H](C)NC(=O)[C@H](Cc2ccc(O)cc2)NC(=O)[C@H](C(C)C)NC(=O)[C@H](CCC(=O)O)NC1=O [Peptide G15A] (Ac-SLEEEWAQIECEVYARCPPSES-NH2; disulfide 11-17) | 7.00 | 97.0 nM | 117 nM | 83.7 nM | 10 fold | 601 nM | 587 nM | 624 nM | 6.22 |  |  |  |
| CC[C@H](C)[C@H](NC(=O)[C@H](CCC(N)=O)NC(=O)[C@H](C)NC(=O)[C@H](Cc1c[nH]c2ccccc12)NC(=O)[C@H](CCCNC(=N)N)NC(=O)[C@H](CCC(=O)O)NC(=O)[C@H](CCC(=O)O)NC(=O)[C@H](CC(C)C)NC(=O)[C@H](CO)NC(C)=O)C(=O)N[C@@H](CCC(=O)O)C(=O)N[C@H]1CSSC[C@@H](C(=O)N2CCC[C@H]2C(=O)N2CCC[C@H]2C(=O)N[C@@H](CO)C(=O)N[C@@H](CCC(=O)O)C(=O)N[C@@H](CO)C(N)=O)NC(=O)[C@H](CCCNC(=N)N)NC(=O)CNC(=O)[C@H](Cc2ccc(O)cc2)NC(=O)[C@H](C(C)C)NC(=O)[C@H](CCC(=O)O)NC1=O [Peptide E5R] (Ac-SLEERWAQIECEVYGRCPPSES-NH2; disulfide 11-17) | 6.26 | 620 nM | 541 nM | 500 nM |  | 1351 nM | 1340 nM | 1323 nM | 5.87 |  |  |  |
| CC[C@H](C)[C@H](NC(=O)[C@H](CCC(N)=O)NC(=O)[C@H](C)NC(=O)[C@H](Cc1c[nH]c2ccccc12)NC(=O)[C@H](CCC(=O)O)NC(=O)[C@H](CCC(=O)O)NC(=O)[C@H](CCCNC(=N)N)NC(=O)[C@H](CC(C)C)NC(=O)[C@H](CO)NC(C)=O)C(=O)N[C@@H](CCC(=O)O)C(=O)N[C@H]1CSSC[C@@H](C(=O)N2CCC[C@H]2C(=O)N2CCC[C@H]2C(=O)N[C@@H](CO)C(=O)N[C@@H](CCC(=O)O)C(=O)N[C@@H](CO)C(N)=O)NC(=O)[C@H](CCCNC(=N)N)NC(=O)CNC(=O)[C@H](Cc2ccc(O)cc2)NC(=O)[C@H](C(C)C)NC(=O)[C@H](CCC(=O)O)NC1=O [Peptide E3R] (Ac-SLREEWAQIECEVYGRCPPSES-NH2; disulfide 11-17) | < 5.37 |  |  |  |  | >10000 nM | >10000 nM | >10000 nM | < 5.00 | < 5.92 | < 5.38 | < 5.37 |
| CC[C@H](C)[C@H](NC(=O)[C@H](CCC(N)=O)NC(=O)[C@H](C)NC(=O)[C@H](Cc1c[nH]c2ccccc12)NC(=O)[C@H](CCC(=O)O)NC(=O)[C@H](CCC(=O)O)NC(=O)[C@H](CCC(=O)O)NC(=O)[C@H](CC(C)C)NC(=O)[C@H](CO)NC(C)=O)C(=O)N[C@@H](CCC(=O)O)C(=O)N[C@H]1CSSC[C@@H](C(=O)N2CCC[C@H]2C(=O)N2CCC[C@H]2C(=O)N[C@@H](CO)C(=O)N[C@@H](CCC(=O)O)C(=O)N[C@@H](CO)C(N)=O)NC(=O)[C@H](C)NC(=O)CNC(=O)[C@H](Cc2ccc(O)cc2)NC(=O)[C@H](C(C)C)NC(=O)[C@H](CCC(=O)O)NC1=O [Peptide R16A] (Ac-SLEEEWAQIECEVYGACPPSES-NH2; disulfide 11-17) | 6.64 | 211 nM | 237 nM | 235 nM |  | 583 nM | 517 nM | 744 nM | 6.21 |  |  |  |
| CC[C@H](C)[C@H](NC(=O)[C@H](CCC(N)=O)NC(=O)[C@H](C)NC(=O)[C@H](Cc1c[nH]c2ccccc12)NC(=O)[C@H](CCC(=O)O)NC(=O)[C@H](CCC(=O)O)NC(=O)[C@H](CCC(=O)O)NC(=O)[C@H](CC(C)C)NC(=O)[C@H](CO)NC(C)=O)C(=O)N[C@@H](CCC(=O)O)C(=O)N[C@H]1CSSC[C@@H](C(=O)N2CCC[C@H]2C(=O)N[C@@H](C)C(=O)N[C@@H](CO)C(=O)N[C@@H](CCC(=O)O)C(=O)N[C@@H](CO)C(N)=O)NC(=O)[C@H](CCCNC(=N)N)NC(=O)CNC(=O)[C@H](Cc2ccc(O)cc2)NC(=O)[C@H](C(C)C)NC(=O)[C@H](CCC(=O)O)NC1=O [Peptide P19A] (Ac-SLEEEWAQIECEVYGRCPASES-NH2; disulfide 11-17) | 7.85 | 13.0 nM | 12.9 nM | 16.2 nM | lower than 5 fold | 172 nM | 109 nM | 148 nM | 6.85 |  |  |  |
| CC[C@H](C)[C@H](NC(=O)[C@H](CCC(N)=O)NC(=O)[C@H](C)NC(=O)[C@H](Cc1c[nH]c2ccccc12)NC(=O)[C@H](CCC(=O)O)NC(=O)[C@H](CCC(=O)O)NC(=O)[C@H](CCC(=O)O)NC(=O)[C@H](CC(C)C)NC(=O)[C@H](CO)NC(C)=O)C(=O)N[C@@H](CCC(=O)O)C(=O)N[C@H]1CSSC[C@@H](C(=O)N2CCC[C@H]2C(=O)N2CCC[C@H]2C(=O)N[C@@H](CO)C(=O)N[C@@H](C)C(=O)N[C@@H](CO)C(N)=O)NC(=O)[C@H](CCCNC(=N)N)NC(=O)CNC(=O)[C@H](Cc2ccc(O)cc2)NC(=O)[C@H](C(C)C)NC(=O)[C@H](CCC(=O)O)NC1=O [Peptide E21A] (Ac-SLEEEWAQIECEVYGRCPPSAS-NH2; disulfide 11-17) | 7.76 | 19.79 nM | 18.2 nM | 14.7 nM | lower than 5 fold | 147 nM | 122 nM | 132 nM | 6.87 |  |  |  |
| CC[C@H](C)[C@H](NC(=O)[C@H](CCC(N)=O)NC(=O)[C@H](C)NC(=O)[C@H](Cc1c[nH]c2ccccc12)NC(=O)[C@H](CCC(=O)O)NC(=O)[C@H](CCC(=O)O)NC(=O)[C@H](CCC(=O)O)NC(=O)[C@H](CC(C)C)NC(=O)[C@H](CO)NC(C)=O)C(=O)N[C@@H](CCC(=O)O)C(=O)N[C@H]1CSSC[C@@H](C(=O)N2CCC[C@H]2C(=O)N2CCC[C@H]2C(=O)N[C@@H](CO)C(=O)N[C@@H](CCC(=O)O)C(=O)N[C@@H](CO)C(N)=O)NC(=O)[C@H](CCCNC(=N)N)NC(=O)CNC(=O)[C@H](Cc2ccc(O)cc2)NC(=O)[C@H](C(C)C)NC(=O)[C@H](CCCNC(=N)N)NC1=O [Peptide E12R] (Ac-SLEEEWAQIECRVYGRCPPSES-NH2; disulfide 11-17) | 6.88 | 117 nM | 126 nM | 152 nM |  | 2869 nM | 2922 nM | 2670 nM | 5.55 |  |  |  |
| CC[C@H](C)[C@H](NC(=O)[C@H](CCC(N)=O)NC(=O)[C@H](C)NC(=O)[C@H](Cc1c[nH]c2ccccc12)NC(=O)[C@H](CCC(=O)O)NC(=O)[C@H](CCC(=O)O)NC(=O)[C@H](CCC(=O)O)NC(=O)[C@H](CC(C)C)NC(=O)[C@H](CO)NC(C)=O)C(=O)N[C@@H](CCCNC(=N)N)C(=O)N[C@H]1CSSC[C@@H](C(=O)N2CCC[C@H]2C(=O)N2CCC[C@H]2C(=O)N[C@@H](CO)C(=O)N[C@@H](CCC(=O)O)C(=O)N[C@@H](CO)C(N)=O)NC(=O)[C@H](CCCNC(=N)N)NC(=O)CNC(=O)[C@H](Cc2ccc(O)cc2)NC(=O)[C@H](C(C)C)NC(=O)[C@H](CCC(=O)O)NC1=O [Peptide E10R] (Ac-SLEEEWAQIRCEVYGRCPPSES-NH2; disulfide 11-17) | 8.43 | 3.77 nM | 3.11 nM | 4.23 nM |  | 27 nM | 27 nM | 24 nM | 7.58 |  |  |  |
